Where two headings read alike, the source gives them in different places.
Type: physicochemical
Experimental: A 10 mL solution of M4N at a concentration of about 10 mg/mL in 40% BP-β-CD was made as follows. About 10 mL of the 40% HP-β-CD solution were added to a glass beaker containing a stir bar. The beaker was placed on a magnetic plate and the stir bar was set to stir at medium speed. About […] of M4N were slowly added to the 40% HP-β-CD in the center of the beaker with the aid of a spatula. The M4N/40% HP-β-CD mixture was stirred for 2 hr or until all M4N was uniformly suspended without any clumps being present. The M4N/40% HP-β-CD mixture was optionally heated at 80° C. for about 30 min. (or longer if a larger volume of solution was desired, for example, 1 hr at 80° C. for 100 mL of the M4N/HP-β-CD mixture), or longer as needed to ensure complete dissolution of M4N. […] The final M4N/40% HP-β-CD solution was stored at room temperature and was kept protected from light. This process may be scaled up or down to obtain the requisite volume or concentration of M4N. Formulations containing M4N in other cyclodextrin solutions may be similarly made, such as, for example, by substituting HP-β-CD in the process described above with other cyclodextrins. […]
A 10 mL solution of M4N at a concentration of about 10 mg/mL in 50% HP-β-CD/0.5% HPMC was made as follows. About 10 mL of the 50% HP-β-CD/0.5% HPMC solution were added to a glass beaker containing a stir bar. The beaker was placed on a magnetic plate and the stir bar was set to stir at medium speed. About 100 mg of M4N were slowly added to the 50% HP-β-CD/0.5% HPMC in the center of the beaker with the aid of a spatula. The M4N/50% HP-β-CD/0.5% HPMC mixture was stirred for 24 hr or until all M4N was uniformly suspended without any clumps being present. The M4N/50% HP-β-CD/0.5% HPMC mixture was heated at about 90° C. for about 30 min. (or longer if a larger volume of solution was desired, for example, 1 hr at 90° C. for 500 mL of the M4N/50% HP-β-CD/0.5% HPMC mixture), or longer as needed to ensure complete dissolution of M4N. […] The final M4N/50% HP-β-CD/0.5% HPMC solution was stored at room temperature and was kept protected from light.
A 10 mL solution of M4N at a concentration of about 20 mg/mL in 5% EC (w/v) (the “EC formulation”) was made as follows. About 10 mL of 5% EC formulation, made as described above, were added to a glass beaker containing a stir bar. The beaker was placed on a magnetic plate and the stir bar was set to stir at medium speed, and covered with a round Teflon® cover. About 200 mg of M4N were slowly added to the 5% EC formulation in the center of the beaker with the aid of a spatula to prevent M4N from sticking to the beaker wall. The M4N/EC mixture was stirred for 2 hr or until all M4N had dissolved or was uniformly suspended without any clumps being present. The M4N/EC mixture was heated at about 60° C. for about 30 min. (or longer if a larger volume of solution was desired, for example, 1 hr at 60° C. for 500 mL of the M4N/EC mixture), or longer as needed to ensure complete dissolution of M4N. […] The final M4N/EC solution was stored at room temperature and was kept protected from light.
A 10 mL solution of M4N at a concentration of about 50 mg/mL in sesame oil was made as follows. About 10 mL of sesame oil were added to a glass beaker containing a stir bar. The beaker was placed on a magnetic plate and the stir bar was set to stir at medium speed. About 500 mg of M4N were slowly added to the sesame oil in the center of the beaker with the aid of a spatula to prevent M4N from sticking to the beaker wall. The M4N/sesame oil mixture was stirred for about 2 hr or until all M4N had dissolved or was uniformly suspended without any clump being present. The M4N/sesame oil mixture was heated at about 60° C. for about 30 min. (or longer if a larger volume of solution was desired, for example, 1 hr at 60° C. for 500 mL of the M4N/sesame oil mixture), or longer as need to ensure complete dissolution of M4N. […]

[1] = M4N 13.3 mg/mL in 27% HP-β-CD, 33% PEG 400 (v/v)
[2] = M4N 13.3 mg/mL in 27% HP-β-CD, 33% Tween ® 80 (v/v)
[3] = M4N 16.7 mg/mL in 13% HP-β-CD, 67% PEG 300 (v/v)
[4] = M4N 19.3 mg/mL in 10% HP-β-CD, 77% PEG 300 (v/v)
[5] = M4N 50 mg/mL in 50% HP-β-CD, 1.25% PVP (w/v)
Wherever Dissolution After Cool Down is given: key: N represents 'No'; Y represents 'Yes.'.

COc1ccc(C[C@@H](C)[C@@H](C)Cc2ccc(OC)c(OC)c2)cc1OC [Formulation M4N, meso-1,4-bis(3,4-dimethoxyphenyl)-2,3-dimethylbutane]
Dissolution After Cool Down [1]: Y | Dissolution After Rotation [1]: N | Dissolution After Heating at X° C. (M4N 13.3 mg/mL in 27% HP-β-CD, 33% PEG 400 (v/v), 60°): Y at 60° | Dissolution After Cool Down [2]: N | Dissolution After Rotation [2]: N | Dissolution After Heating at X° C. (M4N 13.3 mg/mL in 27% HP-β-CD, 33% Tween ® 80 (v/v), 60°): Y at 60° | Dissolution After Rotation (M4N 14 mg/mL in 40% HP-β-CD): N | Dissolution After Heating at X° C. (M4N 14 mg/mL in 40% HP-β-CD, 80°): N at 80° | Dissolution After Rotation (M4N 16 mg/mL in 40% HP-β-CD): N | Dissolution After Heating at X° C. (M4N 16 mg/mL in 40% HP-β-CD, 80°): N at 80° | Dissolution After Cool Down [3]: N | Dissolution After Rotation [3]: N | Dissolution After Heating at X° C. (M4N 16.7 mg/mL in 13% HP-β-CD, 67% PEG 300 (v/v), 60°): Y at 60° | Dissolution After Cool Down [4]: N | Dissolution After Rotation [4]: N | Dissolution After Heating at X° C. (M4N 19.3 mg/mL in 10% HP-β-CD, 77% PEG 300 (v/v), 60°): Y at 60° | Dissolution After Cool-Down (M4N 20 mg/mL in 5% EC in EtOH): Y | Dissolution After Rotation (M4N 20 mg/mL in 5% EC in EtOH): N | Dissolution After Rotation (M4N 20 mg/mL in 30% HP-β-CD): N | Dissolution After Heating at X° C. (M4N 20 mg/mL in 30% HP-β-CD, 90°): N at 90° | Dissolution After Rotation (M4N 20 mg/mL in 40% HP-β-CD): N | Dissolution After Heating at X° C. (M4N 20 mg/mL in 40% HP-β-CD, 80°): N at 80° | Dissolution After Rotation (M4N 20 mg/mL in 50% HP-β-CD): N | Dissolution After Rotation (M4N 20 mg/mL in 50% HP-β-CD, 0.5% CMC): Suspension | Dissolution After Rotation (M4N 20 mg/mL in 50% HP-β-CD, 0.5% HPMC, other experiment, no heat): Suspension | Dissolution After Heating at X° C. (M4N 20 mg/mL in 50% HP-β-CD, 90°): N at 90° | Dissolution After Cool-Down (M4N 20 mg/mL in Corn Oil): Y | Dissolution After Cool-Down (M4N 20 mg/mL in Sesame Oil): Y | Dissolution After Cool-Down (M4N 24.3 mg/mL in 75% Sesame Oil, 9% Tween ® 20, 16% Glycerol): Y | Dissolution After Cool-Down (M4N 29 mg/mL in 89% Sesame Oil, 11% Tween ® 20): Y | Dissolution After Cool-Down (M4N 30 mg/mL in 5% EC in EtOH): N | Dissolution After Rotation (M4N 30 mg/mL in 5% EC in EtOH): N | Dissolution After Cool-Down (M4N 30 mg/mL in Olive Oil): N | Dissolution After Cool-Down (M4N 30 mg/mL in Sesame Oil): Y | Dissolution After Cool-Down (M4N 30 mg/mL in Soybean Oil): N | Dissolution After Cool-Down (M4N 40 mg/mL in 50% Peppermint Oil, 50% PEG 300): Y | Dissolution After Cool-Down (M4N 40 mg/mL in 50% Peppermint Oil, 50% PEG 400): Y | Dissolution After Cool-Down (M4N 40 mg/mL in 50% Peppermint Oil, 50% Sesame Oil): Y | Dissolution After Cool-Down (M4N 40 mg/mL in 50% Peppermint Oil, 50% Tween ® 20): Y | Dissolution After Cool-Down (M4N 40 mg/mL in 85% Sesame Oil, 15% Tween ® 20): N | Dissolution After Cool-Down (M4N 40 mg/mL in Corn Oil): Y | Dissolution After Cool-Down (M4N 40 mg/mL in Peppermint Oil): Y | Dissolution After Rotation (M4N 50 mg/mL in 2.3% HPMC): N | Dissolution After Cool-Down (M4N 50 mg/mL in 5% EC in EtOH): N | Dissolution After Rotation (M4N 50 mg/mL in 5% EC in EtOH): N | Dissolution After Rotation (M4N 50 mg/mL in 15% α-CD): N | Dissolution After Heating at X° C. (M4N 50 mg/mL in 15% α-CD, 90°): N at 90° | Dissolution After Rotation (M4N 50 mg/mL in 20% HP-β-CD in saline): N | Dissolution After Rotation (M4N 50 mg/mL in 30% HP-β-CD): N | Dissolution After Heating at X° C. (M4N 50 mg/mL in 30% HP-β-CD, 90°): N at 90° | Dissolution After Rotation (M4N 50 mg/mL in 40% HP-β-CD): N | Dissolution After Heating at X° C. (M4N 50 mg/mL in 40% HP-β-CD, 80°): N at 80° | Dissolution After Rotation (M4N 50 mg/mL in 50% HP-β-CD): N | Dissolution After Rotation (M4N 50 mg/mL in 50% HP-β-CD, 0.5% HPMC): N | Dissolution After Rotation (M4N 50 mg/mL in 50% HP-β-CD, 0.5% HPMC, other experiment, no heat): Suspension | Dissolution After Heating at X° C. [5]: N | Dissolution After Rotation [5]: N | Dissolution After Heating at X° C. (M4N 50 mg/mL in 50% HP-β-CD, 90°): N at 90° | Dissolution After Cool-Down (M4N 50 mg/mL in Camillia Oil): N

Reference: US20090022803A1, “Oral Formulations For Delivery of Catecholic Butanes Including Ndga Compounds” (priority 2005, published 2009)
